Data from US20120108501A1, “Protease Inhibitors” (priority 2009, published 2012).

Assays:
[1] = test system: HT/92/599 clinical subtype B HIV-1; experiment: HIV-1 reverse transcriptase activity following infection in fresh human PBMCs; type: cell-based; details: seven days; for EC50: read-out: PBMC/HIV-1HT/92/599 EC50; for EC90: read-out: PBMC/HIV-1HT/92/599 EC90
Procedure: Fresh human peripheral blood mononuclear cells (PBMCs) obtained from a commercial source were purified following centrifugation using a Ficoll-Hypaque density gradient. Viable cells were induced to proliferate in the presence of PHA-P and recombinant human IL-2 for 72 hours. PBMCs pooled from three donors were cultured with test compounds in the presence of the HT/92/599 clinical subtype B HIV-1 for seven days, followed by measurement of reverse transcriptase activity in cell supernatants using a radioactive incorporation polymerization assay. […] Incorporation of TTP into DNA was monitored by spotting the reaction mixture onto a DEAE filter mat, followed by washes with 5% phosphate buffer, distilled water, and 70% ethanol, and subsequent drying of the mat. Radioactivity was measured using a Wallac 1450 Microbeta Trilux liquid scintillation counter using Opti-Fluor O. Test compound-associated toxicity was measured in PBMCs cultured for seven days in the absence of virus using XTT reagent. EC50 and EC90 values were calculated as the protease inhibitor concentration leading to 50% and 90% reduction in […], respectively, compared to virus-infected cells without protease inhibitor. TC50 values were calculated as the protease inhibitor concentration leading to 50% cell death in the absence of viral infection. A value for Therapeutic Index (TI) was calculated as TC50/EC50.

HIV-1RF = experiment: Cytoprotection in CEM-SS cells infected with HIV-1RF (XTT); type: cell-based; details: CEM-SS cells infected with RF strain of HIV-1, six days
Procedure: (§1) To evaluate whether the protease inhibitors described herein retain the ability to protect against HIV-1 infection, CEM-SS cells infected with the RF strain of HIV-1 were treated with test compounds for six days, and then cell viability was monitored using the tetrazolium dye XTT. Infection studies were performed and EC50 values were calculated as the protease inhibitor concentration leading to 50% reduction in cell death compared to virus-infected cells without protease inhibitor. TC50 values were calculated as the protease inhibitor concentration leading to 50% cell death in the absence of viral infection. A value for Therapeutic Index (TI) was calculated as TC50/EC50.

CEM-SS cells = type: cell-based
Procedure: as §1

[2] = test system: human peripheral blood mononuclear cells (PBMCs); type: cell-based
Procedure: Fresh human peripheral blood mononuclear cells (PBMCs) obtained from a commercial source were purified following centrifugation using a Ficoll-Hypaque density gradient. Viable cells were induced to proliferate in the presence of PHA-P and recombinant human IL-2 for 72 hours. PBMCs pooled from three donors were cultured with test compounds in the presence of the HT/92/599 clinical subtype B HIV-1 for seven days, followed by measurement of reverse transcriptase activity in cell supernatants using a radioactive incorporation polymerization assay. Cell supernatant containing HIV-1 viral was incubated for 90 minutes at 37° C. with a reaction mixture containing EGTA, Triton X-100, Tris (pH 7.4), DTT, MgCl2, poly rA, oligo dT, and tritiated thymidine triphosphate (TTP). Incorporation of TTP into DNA was monitored by spotting the reaction mixture onto a DEAE filter mat, followed by washes with 5% phosphate buffer, distilled water, and 70% ethanol, and subsequent drying of the mat. Radioactivity was measured using a Wallac 1450 Microbeta Trilux liquid scintillation counter using Opti-Fluor O. Test compound-associated toxicity was measured in PBMCs cultured for seven days in the absence of virus using XTT reagent. EC50 and EC90 values were calculated as the protease inhibitor concentration leading to 50% and 90% reduction in […], respectively, compared to virus-infected cells without protease inhibitor. TC50 values were calculated as the protease inhibitor concentration leading to 50% cell death in the absence of viral infection. A value for Therapeutic Index (TI) was calculated as TC50/EC50.

[3] = Pharmacokinetics of PEGylated protease inhibitor prodrugs in rats; type: in vivo, male Sprague-Dawley rats; parameters: AUCall / AUC: concentration or dose not given beside the values; details: prodrug in plasma; for AUCall / Cmax: mean ± SD
Outline: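 Male Sprague-Dawley rats dosed; serial blood drawn via jugular vein catheters into K2EDTA and processed to plasma. Test article or released PEGylated molecule quantified by LC-MS/MS; Cmax, AUCall, T½ and MRTlast estimated noncompartmentally.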

[4] = Pharmacokinetics of released PEGylated protease inhibitor following P.O. administration of prodrugs in rats; type: in vivo, male Sprague-Dawley rats; parameters: AUCall Mean: concentration or dose not given beside the values; details: rats (n = 4-5)
Outline: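 Prodrugs given orally to male Sprague-Dawley rats, with serial blood via jugular catheter into K2EDTA. Plasma levels of test article or released PEGylated inhibitor measured by LC-MS/MS. PK parameters from noncompartmental analysis.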

[5] = mPEG6-atazanavir in plasma after PO administration of mPEG6-ATV or of the listed prodrug
[6] = mPEG3-atazanavir in plasma after PO administration of mPEG3-ATV or of the listed prodrug
[7] = mPEG5-atazanavir in plasma after PO administration of mPEG5-ATV or of the listed prodrug

Row | Compound | MRTlast [3] | AUCall [3] | Cmax [3] | AUCall Mean [4, 5] | Cmax Mean [4, 5] | MRT last Mean [4, 5] | Tmax Median [4, 5] | t½(z) [3] | also measured
1 | CCCCCCCCCCCCCCCCOCC(COP(=O)(O)OC(CN(Cc1ccc(-c2ccccn2)cc1)NC(=O)C(NC(=O)OC)C(C)(C)C)C(Cc1ccccc1)NC(=O)C(NC(=O)OCCOCCOCCOC)C(C)(C)C)OC (stereo not shown) [mPEG3-Atazanavir-monophospholipid] | – | – | – | – | – | – | – | – | EC50 [1]: 0.97 µM; EC90 [1]: 2.52 µM; EC50 (HIV-1RF): 0.35 µM; CC50 (CEM-SS cells): 14.2 µM; CC50 [2]: 43.7 µM
2 | CCCCCCCCCCCCCCCCOCC(COP(=O)(O)OC(CN(Cc1ccc(-c2ccccn2)cc1)NC(=O)C(NC(=O)OC)C(C)(C)C)C(Cc1ccccc1)NC(=O)C(NC(=O)OCCOCCOCCOCCOCCOC)C(C)(C)C)OC (stereo not shown) [mPEG5-Atazanavir-monophospholipid] | – | – | – | – | – | – | – | – | EC50 [1]: 12.3 µM; EC90 [1]: 26.8 µM; CEM-SS/HIV-1RF EC50 (HIV-1RF): no EC50 value could be determined; EC50 (HIV-1RF): > 200 µM; CC50 (CEM-SS cells): 12 µM; CC50 [2]: 17.1 µM
3 | COCCOCCOCCOCCOCCOCCOC(=O)NC(C(=O)NC(Cc1ccccc1)C(CN(Cc1ccc(-c2ccccn2)cc1)NC(=O)C(NC(=O)OC)C(C)(C)C)OC(=O)COCCOC(=O)C(N)CC(C)C)C(C)(C)C.Cl (stereo not shown) [mPEG6-Atazanavir-CME-Leucine HCl, mPEG6-Atazanavir-CME-Leucine] | 2.24 ± 2.58 h | 2.56 ± 2.89 ng·h/mL | 0.851 ± 0.730 ng/mL | 287 ng·h/mL | 8.65 ng/mL | 21.8 h | 1.50 h | – | –
4 | COCCOCCOCCOCCOCCOCCOC(=O)NC(C(=O)NC(Cc1ccccc1)C(CN(Cc1ccc(-c2ccccn2)cc1)NC(=O)C(NC(=O)OC)C(C)(C)C)OC(=O)COCCOC(=O)C(N)Cc1ccccc1)C(C)(C)C.Cl (stereo not shown) [mPEG6-Atazanavir-CME-phenylalanine HCl] | 0.948 ± 0.0741 h | 6.41 ± 9.53 ng·h/mL | 8.21 ± 12.1 ng/mL | 351 ng·h/mL | 12.5 ng/mL | 22.1 h | 1.00 h | – | –
5 | COCCOCCOCCOCCOCCOCCOC(=O)NC(C(=O)NC(Cc1ccccc1)C(CN(Cc1ccc(-c2ccccn2)cc1)NC(=O)C(NC(=O)OC)C(C)(C)C)OC(=O)C(N)CC(C)C)C(C)(C)C.Cl [mPEG6-Atazanavir-L-Leucine] | 1.72 ± 0.237 h | 107 ± 62.4 ng·h/mL | 55.5 ± 41.6 ng/mL | 148 ng·h/mL | 9.49 ng/mL | 10.2 h | 0.500 h | 2.02 ± 1.07 h | –
6 | COCCOCCOCCOCCOCCOCCOC(=O)NC(C(=O)NC(Cc1ccccc1)C(CN(Cc1ccc(-c2ccccn2)cc1)NC(=O)C(NC(=O)OC)C(C)(C)C)OCOC)C(C)(C)C (stereo not shown) [mPEG6-Atazanavir-methyl methyl ether, mPEG6-Atazanavir Methyl Methyl Ether] | 5.12 ± 1.74 h | 1140 ± 312 ng·h/mL | 222 ± 73 ng/mL | 55.8 ng·h/mL | 11.3 ng/mL | 3.11 h | 1.50 h | 11.2 ± 7.72 h | Cmin(24 hr) ([3]; 24 hr): 3.47 ± 2.81 ng/mL
7 | CCCCCCCCCCCCCCCCOCC(COP(=O)(O)OC(CN(Cc1ccc(-c2ccccn2)cc1)NC(=O)C(NC(=O)OC)C(C)(C)C)C(Cc1ccccc1)NC(=O)C(NC(=O)OCCOCCOCCOCCOCCOCCOC)C(C)(C)C)OC (stereo not shown) [mPEG6-Atazanavir-monophospholipid, mPEG6-atazanavir monophospholipid] | – | – | – | 0.108 ng·h/mL | 0.432 ng/mL | 0.250 h | 0.250 h | – | EC50 [1]: 12.4 µM; EC90 [1]: 26.3 µM; EC50 (HIV-1RF): 14.2 µM; CC50 (CEM-SS cells): 12.6 µM; CC50 [2]: 37.6 µM
8 | COCCOCCOCCOC(=O)NC(C(=O)NC(Cc1ccccc1)C(CN(Cc1ccc(-c2ccccn2)cc1)NC(=O)C(NC(=O)OC)C(C)(C)C)OC(=O)C(N)CC(C)C)C(C)(C)C.Cl [mono-mPEG3-Atazanavir-L-Leucine, mPEG3-Atazanavir-L-Leucine] | 2.73 ± 0.912 h | 1930 ± 1170 ng·h/mL | 470 ± 179 ng/mL | – | – | – | – | 3.33 ± 0.958 h | AUCall Mean [4, 6]: 347 ng·h/mL; Cmax Mean [4, 6]: 66.0 ng/mL; MRT last Mean [4, 6]: 4.14 h; Tmax* Median [4, 6]: 0.750 h
9 | Acetate Ester-mPEG5-Atazanavir [Acetate-OCHMe—OCO2-mPEG5-Atazanavir] | 6.21 ± 3.38 h | 616 ± 156 ng·h/mL | 115 ± 29.0 ng/mL | – | – | – | – | 4.82 ± 3.10 h | AUCall Mean [4, 7]: 616 ng·h/mL; Cmax Mean [4, 7]: 115 ng/mL; MRT last Mean [4, 7]: 6.21 h; Tmax Median [4, 7]: 0.750 h
10 | Methoxyacetate Ester-mPEG5-Atazanavir | 5.81 ± 2.95 h | 298 ± 121 ng·h/mL | 38.7 ± 13.8 ng/mL | – | – | – | – | 6.30 ± 2.06 h | AUCall Mean [4, 7]: 298 ng·h/mL; Cmax Mean [4, 7]: 38.7 ng/mL; MRT last Mean [4, 7]: 5.81 h; Tmax Median [4, 7]: 1.50 h
11 | Phe-Gly-mPEG3-Atazanavir Hydrochloride | 0.602 ± 0.164 h | 6.07 ± 3.82 ng·h/mL | 7.38 ± 6.67 ng/mL | – | – | – | – | 1.24 ± 0.237 h | AUCall Mean [4, 6]: 69.6 ng·h/mL; Cmax Mean [4, 6]: 5.02 ng/mL; MRT last Mean [4, 6]: 12.6 h; Tmax* Median [4, 6]: 1.00 h
12 | mPEG3-atazanavir-ethoxy-CME-Leu-Leu [mPEG-3-Atazanavir-Ethoxy-CM-Leu-Leu] | 1.01 ± 0.095 h | 8.27 ± 3.06 ng·h/mL | 2.95 ± 1.30 ng/mL | – | – | – | – | 1.21 NC^ hr | AUCall Mean [4, 6]: 148 ng·h/mL; Cmax Mean [4, 6]: 6.42 ng/mL; MRT last Mean [4, 6]: 16.5 h; Tmax* Median [4, 6]: 9.00 h
